Data from patent US20160045505A1, “COMPOUNDS AND COMPOSITIONS FOR THE TREATMENT OF PARASITIC DISEASES” (NOVARTIS AG, priority 2013, published 2016).
Like-named read-outs stand apart in the source and are kept apart here.

Tests used:
[1] = tested on: Leishmania donovani axenic amastigote parasites; assay: Leishmania donovani axenic amastigote proliferation assay (Cell TiterGlo luminescence, 2 day incubation); assay type: cell-based; conditions: Leishmania donovani, read-out: L. donovani amastigotes EC50
[2] = tested on: L. donovani HU3 strain in mouse peritoneal macrophages; assay: Assay for proliferation of Leishmania parasites in infected mouse peritoneal macrophages (SybrGreen staining, high-content imaging, 5 days); assay type: cell-based, Leishmania donovani; conditions: L. donovani in mouse peritoneal macrophages, read-out: L. donovani Macrophage EC50
[3] = tested on: Trypanosoma cruzi amastigotes (Tulahuen strain expressing Lac-Z) cultured in 3T3 fibroblast cells; assay: microbe, parasite or virus in culture; assay type: cell-based; conditions: Trypanosoma cruzi, TULAHUEN, Fibroblast, T. cruzi amastigotes in 3T3 fibroblast cells; read-out: T cruzi EC50
[4] = axenic amastigotes, inhibition of proliferation
[5] = Leishmania donovani, Peritoneal macrophage, inhibition of proliferation
[6] = Leishmania donovani, Peritoneal macrophage

Compound | EC50 [1, 4] [nM] | EC50 [2, 5] [nM] | other results
CC(C)OC(=O)Nc1cnc2nc(-c3cccc(NC(=O)N4CCCC4)c3)cn2c1 [Compound 5] | 1080 | 4000 | –
CC(C)OC(=O)Nc1cnc2nc(-c3cccc(NC(=O)c4cnccn4)c3)cn2c1 [Compound 7] | 2530 | 1860 | –
CC(C)OC(=O)Nc1cnc2nc(-c3cccc(NC(=O)c4ccco4)c3)cn2c1 [Compound 8] | 1590 | 4700 | –
CON(C)C(=O)Nc1cccc(-c2cn3cc(NC(=O)OC(C)C)cnc3n2)c1 [Compound 14] | – | – | EC50 ([2]; inhibition of proliferation): 3200 nM
CC(C)OC(=O)Nc1cnc2nc(-c3cc(NC(=O)N4CCCC4)ccc3Cl)c(F)n2c1 [Compound 15, isopropyl (2-(2-chloro-5-(pyrrolidine-1-carboxamido)phenyl)-3-fluoroimidazo[1,2-a]pyrimidin-6-yl)carbamate] | 1500 | 2950 | –
CC(C)OC(=O)Nc1cnc2nc(-c3cc(NC(=O)N4CCCC4)ccc3F)cn2c1 [Compound 17] | 410 | 350 | –
CC(C)OC(=O)Nc1cnc2nc(-c3cc([N+](=O)[O-])ccc3F)cn2c1 [Compound 19, isopropyl (2-(2-fluoro-5-nitrophenyl)imidazo[1,2-a]pyrimidin-6-yl)carbamate] | 19100 | 46900 | –
COCCOC(=O)Nc1cccc(-c2cn3cc(NC(=O)OC(C)C)cnc3n2)c1 [Compound 23] | 7300 | 24700 | –
O=C(Nc1ccc(Cl)c(-c2cn3cc(-c4ccccc4)cnc3n2)c1)N1CCCC1 [Compound 29] | 36 | 152 | –
CNc1ccc(-c2cnc3nc(-c4cc(NC(=O)OCCOC)ccc4Cl)cn3c2)cc1 [Compound 36] | 560 | 1280 | –
Cc1nc(C)c(C(=O)Nc2ccc(F)c(-c3cn4cc(NC(=O)OC(C)C)cnc4n3)c2)o1 [Compound 61] | 245 | 715 | –
Cc1nc(C(=O)Nc2ccc(F)c(-c3cn4cc(NC(=O)OC(C)C)cnc4n3)c2)c(C)o1 [Compound 62] | 2000 | 11600 | –
CC(C)OC(=O)Nc1cnc2nc(-c3cc(NC(=O)c4ccc(Cl)o4)ccc3F)cn2c1 [Compound 64, isopropyl (2-(5-(5-chlorofuran-2-carboxamido)-2-fluorophenyl)imidazo[1,2-a]pyrimidin-6-yl)carbamate] | 161 | 469 | –
CC(C)OC(=O)Nc1cnc2nc(-c3cc(NC(=O)c4cocn4)ccc3F)cn2c1 [Compound 65] | 2040 | 9130 | –
CC(C)OC(=O)Nc1cnc2nc(-c3cc(NC(=O)c4ccc[nH]4)ccc3F)cn2c1 [Compound 71] | 1890 | 3230 | –
CC(C)OC(=O)Nc1cnc2nc(-c3cc(NC(=O)c4ccno4)ccc3F)cn2c1 [Compound 72] | 764 | 8390 | –
CC(C)OC(=O)Nc1cnc2nc(-c3cc(NC(=O)c4cccn4C)ccc3F)cn2c1 [Compound 73] | 1290 | 15200 | –

Compound | EC50 [1, 4] [nM] | EC50 [2, 5] [nM] | other results
CC(C)OC(=O)Nc1cnc2nc(-c3cc(NC(=O)c4cc5cc(Cl)ccc5[nH]4)ccc3F)cn2c1 [Compound 89] | > 25000 | > 50000 | –
CC(C)OC(=O)Nc1cnc2nc(-c3cc(NC(=O)c4cnc(Br)s4)ccc3F)cn2c1 [Compound 91] | 4610 | 24100 | –
CC(C)OC(=O)Nc1cnc2nc(-c3cc(NC(=O)c4cc5cccc(F)c5[nH]4)ccc3F)cn2c1 [Compound 93] | > 25000 | > 50000 | –
COC(=O)CN1CCC(c2cnc3nc(-c4cc(NC(=O)c5oc(C)nc5C)ccc4F)cn3c2)CC1 [Compound 539, methyl 2-(4-(2-(5-(2,4-dimethyloxazole-5-carboxamido)-2-fluorophenyl)imidazo[1,2-a]pyrimidin-6-yl)piperidin-1-yl)acetate] | – | – | EC50 ([1]; L. donovani axenic amastigotes): 975 nM; EC50 [3]: 381 nM
O=C(Nc1ccc(F)c(-c2cn3cc(C(F)(F)F)cnc3n2)c1)N1CC(F)C1 [Compound 587, 3-fluoro-N-(4-fluoro-3-(6-(trifluoromethyl)imidazo[1,2-a]pyrimidin-2-yl)phenyl)azetidine-1-carboxamide] | – | – | EC50 ([1]; L. donovani axenic amastigotes): 73 nM; EC50 [2, 6]: 647 nM
Cc1nc(C)c(C(=O)Nc2ccc(F)c(-c3cn4cc(-c5ncccc5C(F)F)cnc4n3)c2)o1 [Compound 588] | – | – | EC50 ([1]; L. donovani axenic amastigotes): 19 nM; EC50 [2, 6]: 459 nM
Cc1nc(C)c(C(=O)Nc2ccc(F)c(-c3cn4cc(-c5ncccc5C(F)(F)F)cnc4n3)c2)o1 [Compound 589] | – | – | EC50 ([1]; L. donovani axenic amastigotes): 22 nM; EC50 [2, 6]: 375 nM
Cc1nc(C)c(C(=O)Nc2ccc(F)c(-c3cn4cc(CC(C)C)cnc4n3)c2)o1 [Compound 590, N-(4-fluoro-3-(6-isobutylimidazo[1,2-a]pyrimidin-2-yl)phenyl)-2,4-dimethyloxazole-5-carboxamide] | – | – | EC50 ([1]; L. donovani axenic amastigotes): 24 nM; EC50 [2, 6]: 45 nM
Cc1nc(C)c(C(=O)Nc2ccc(F)c(-c3cn4cc(CC(C)(C)C)cnc4n3)c2)o1 [Compound 591] | – | – | EC50 ([1]; L. donovani axenic amastigotes): 28 nM; EC50 [2, 6]: > 50000 nM
Cc1nc(C)c(C(=O)Nc2ccc(F)c(-c3cn4cc(CC5CCC5)cnc4n3)c2)o1 [Compound 613, N-(3-(6-(cyclobutylmethyl)imidazo[1,2-a]pyrimidin-2-yl)-4-fluorophenyl)-2,4-dimethyloxazole-5-carboxamide] | – | – | EC50 ([1]; L. donovani axenic amastigotes): 30 nM; EC50 [2, 6]: > 50000 nM
Cc1nc(C)c(C(=O)Nc2ccc(F)c(-c3cn4cc(CC5OCCO5)cnc4n3)c2)o1 [Compound 614] | – | – | EC50 ([1]; L. donovani axenic amastigotes): 389 nM; EC50 [2, 6]: > 50000 nM
Cc1nc(C)c(C(=O)Nc2ccc(F)c(-c3cn4cc(C5C6CCCC5C6)cnc4n3)c2)o1 (centres unmarked) [Compound 615] | – | – | EC50 ([1]; L. donovani axenic amastigotes): 82 nM
Cc1nc(C)c(C(=O)Nc2ccc(F)c(-c3cn4cc(CN5CCOCC5)cnc4n3)c2)o1 [Compound 616, N-(4-fluoro-3-(6-(morpholinomethyl)imidazo[1,2-a]pyrimidin-2-yl)phenyl)-2,4-dimethyloxazole-5-carboxamide] | – | – | EC50 ([1]; L. donovani axenic amastigotes): 602 nM; EC50 [2, 6]: > 50000 nM
Cc1nc(C)c(C(=O)Nc2ccc(F)c(-c3cn4cc(CN(C)C)cnc4n3)c2)o1 [Compound 617] | – | – | EC50 ([1]; L. donovani axenic amastigotes): 3440 nM
Cc1nc(C)c(C(=O)Nc2ccc(F)c(-c3cn4cc(C(C)N5CCOCC5)cnc4n3)c2)o1 (centres unmarked) [Compound 618, N-(4-fluoro-3-(6-(1-morpholinoethyl)imidazo[1,2-a]pyrimidin-2-yl)phenyl)-2,4-dimethyloxazole-5-carboxamide] | – | – | EC50 ([1]; L. donovani axenic amastigotes): 903 nM; EC50 [2, 6]: 691 nM
Cc1nc(C)c(C(=O)Nc2ccc(F)c(-c3cn4cc(C(C)N(C)C)cnc4n3)c2)o1 (centres unmarked) [Compound 619] | – | – | EC50 ([1]; L. donovani axenic amastigotes): 6350 nM; EC50 [2, 6]: 929 nM

Second part, led by results:

EC50 [1, 4] [nM] | EC50 [2, 5] [nM] | Compound | other results
> 25000 | > 50000 | CC(C)OC(=O)Nc1cnc2nc(-c3cc(NC(=O)c4cnc(N)o4)ccc3F)cn2c1 [Compound 94] | –
69 | 188 | Cc1ncc(C(=O)Nc2ccc(F)c(-c3cn4cc(NC(=O)OC(C)C)cnc4n3)c2)o1 [Compound 95] | –
2980 | 9920 | CC(C)OC(=O)Nc1cnc2nc(-c3cc(NC(=O)c4ncco4)ccc3F)cn2c1 [Compound 99] | –
> 25000 | > 50000 | CC(C)OC(=O)Nc1cnc2nc(-c3cc(NC(=O)c4cnc(Cl)[nH]4)ccc3F)cn2c1 [Compound 100] | –
84 | 298 | CC(C)OC(=O)Nc1cnc2nc(-c3cc(NC(=O)c4ccc(C#N)o4)ccc3F)cn2c1 [Compound 107] | –
80 | – | CC1=C(C(=O)Nc2cnc3nc(-c4cc(NC(=O)N5CCCC5)ccc4F)cn3c2)OCCO1 [Compound 122] | –
7140 | > 40300 | CC(C)OC(=O)NCc1cnc2nc(-c3cc(NC(=O)c4ccc(F)o4)ccc3F)cn2c1 [Compound 207] | –
752 | 2150 | CC(C)OC(=O)Nc1cnc2nc(-c3cc(NC(=O)N(C)C)ccc3F)cn2c1 [Compound 219] | –
6900 | > 18300 | CCNC(=O)Nc1ccc(Cl)c(-c2cn3cc(NC(=O)OC(C)C)cnc3n2)c1 [Compound 254] | –
> 25000 | > 50000 | CC(=O)N[C@@H]1CCN(C(=O)Nc2ccc(Cl)c(-c3cn4cc(NC(=O)OC(C)C)cnc4n3)c2)C1 [Compound 271] | –
862 | 1900 | CCN(CC)C(=O)Nc1ccc(Cl)c(-c2cn3cc(NC(=O)OC(C)C)cnc3n2)c1 [Compound 274] | –
141 | 321 | CC(C)OC(=O)Nc1cnc2nc(-c3cc(NC(=O)N4CC(F)(F)C4)ccc3F)cn2c1 [Compound 289] | –
> 25000 | > 43500 | CC(C)OC(=O)Nc1cnc2nc(-c3cc(NC(=O)N4CC(S(C)(=O)=O)C4)ccc3F)cn2c1 [Compound 292] | –
> 25000 | > 50000 | CC(C)OC(=O)Nc1cnc2nc(-c3cc(NC(=O)N4CCC4C(=O)O)ccc3F)cn2c1 (centres unmarked) [Compound 295] | –
154 | 722 | CN(CC(F)(F)F)C(=O)Nc1ccc(F)c(-c2cn3cc(-c4ccccc4)cnc3n2)c1 [Compound 325] | –
707 | 2120 | CC(C)OC(=O)Nc1ccc(-c2cnc3nc(-c4cc(NC(=O)N5CCCC5)ccc4F)cn3c2)cc1 [Compound 340] | –
2600 | 9430 | O=C(Nc1ccc(F)c(-c2cn3cc(-c4ccnc(C(F)(F)F)c4)cnc3n2)c1)N1CCCC1 [Compound 341] | –
> 25000 | > 50000 | Cc1nc(C)c(C(=O)Nc2ccc(F)c(-c3cn4cc(-c5cnoc5)cnc4n3)c2)o1 [Compound 367] | –
